# Test results published in the supplement of paper PMC10883282.
# ± gives the standard deviation of the averaged measurements.
# Tests used:
# Assay in all cases: relative viability vs DMSO control (72 h) (fraction); higher = more viable cells
# SW982 = system: SW982
# Outline: (§1)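 A 5 µM positive control and 0.1% DMSO vehicle ran alongside sarcoma cell lines seeded in 384-well plates to reach 80–90% confluence. Serially diluted compound, 2.5 µl from source plates of 10 mM to 0.0002 mM, was added after 24 h, and the plates were held 72 h at 37 °C, 5% CO2. Relative viability was worked out from ATPLite readings as percent growth averaged over up to triplicate wells. The values were rescaled so that 1 is full and 0 is none.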
# VA-ES-BJ = system: VA-ES-BJ
# Outline: as §1
# KHOS-240S = system: KHOS-240S
# Outline: as §1
# MES-SA = system: MES-SA
# Outline: as §1
# RD = system: RD
# Outline: as §1
# SK-LMS-1 = system: SK-LMS-1
# Outline: as §1
# SW1353 = system: SW1353
# Outline: as §1
# HS729 = system: HS729
# Outline: as §1
# A204 = system: A204
# Outline: as §1
# SK-ES-1 = system: SK-ES-1
# Outline: as §1
# SW872 = system: SW872
# Outline: as §1
# G401 = system: G401
# Outline: as §1
structure (smiles),measurement,setting,value
COc1cc(Nc2ncc(F)c(Nc3ccc4c(n3)N(COP(=O)(O)O)C(=O)C(C)(C)O4)n2)cc(OC)c1OC [Fostamatinib],relative viability,SW982; 0.00017 µM,1.05 ± 0.016
same,relative viability,SW982; 0.00051 µM,1.05 ± 0.022
same,relative viability,SW982; 0.00152 µM,1.04 ± 0.037
same,relative viability,SW982; 0.00457 µM,1.06 ± 0.025
same,relative viability,SW982; 0.01372 µM,1.053 ± 0.0081
same,relative viability,SW982; 0.04115 µM,1.02 ± 0.017
same,relative viability,SW982; 0.1235 µM,0.822 ± 0.017
same,relative viability,SW982; 0.3704 µM,0.66 ± 0.018
same,relative viability,SW982; 1.111 µM,0.507 ± 0.032
same,relative viability,SW982; 3.333 µM,0.216 ± 0.0071
same,relative viability,SW982; 10 µM,0.128 ± 0.0059
same,relative viability,VA-ES-BJ; 0.00017 µM,1.05 ± 0.045
same,relative viability,VA-ES-BJ; 0.00051 µM,1.06 ± 0.037
same,relative viability,VA-ES-BJ; 0.00152 µM,1.06 ± 0.012
same,relative viability,VA-ES-BJ; 0.00457 µM,1.04 ± 0.027
same,relative viability,VA-ES-BJ; 0.01372 µM,1.04 ± 0.021
same,relative viability,VA-ES-BJ; 0.04115 µM,1.06 ± 0.043
same,relative viability,VA-ES-BJ; 0.1235 µM,1.01 ± 0.026
same,relative viability,VA-ES-BJ; 0.3704 µM,0.888 ± 0.04
same,relative viability,VA-ES-BJ; 1.111 µM,0.727 ± 0.18
same,relative viability,VA-ES-BJ; 3.333 µM,0.366 ± 0.0078
same,relative viability,VA-ES-BJ; 10 µM,0.164 ± 0.025
same,relative viability,KHOS-240S; 0.00017 µM,1.08 ± 0.045
same,relative viability,KHOS-240S; 0.00051 µM,1.08 ± 0.047
same,relative viability,KHOS-240S; 0.00152 µM,1.08 ± 0.073
same,relative viability,KHOS-240S; 0.00457 µM,1.08 ± 0.043
same,relative viability,KHOS-240S; 0.01372 µM,1.07 ± 0.053
same,relative viability,KHOS-240S; 0.04115 µM,1.07 ± 0.016
same,relative viability,KHOS-240S; 0.1235 µM,1.01 ± 0.062
same,relative viability,KHOS-240S; 0.3704 µM,0.892 ± 0.046
same,relative viability,KHOS-240S; 1.111 µM,0.559 ± 0.012
same,relative viability,KHOS-240S; 3.333 µM,0.196 ± 0.0087
same,relative viability,KHOS-240S; 10 µM,0.0301 ± 0.0056
same,relative viability,MES-SA; 0.00017 µM,0.904 ± 0.011
same,relative viability,MES-SA; 0.00051 µM,0.94 ± 0.062
same,relative viability,MES-SA; 0.00152 µM,0.932 ± 0.015
same,relative viability,MES-SA; 0.00457 µM,0.921 ± 0.039
same,relative viability,MES-SA; 0.01372 µM,0.943 ± 0.033
same,relative viability,MES-SA; 0.04115 µM,0.931 ± 0.035
same,relative viability,MES-SA; 0.1235 µM,0.853 ± 0.043
same,relative viability,MES-SA; 0.3704 µM,0.768 ± 0.03
same,relative viability,MES-SA; 1.111 µM,0.861 ± 0.03
same,relative viability,MES-SA; 3.333 µM,0.332 ± 0.019
same,relative viability,MES-SA; 10 µM,0.043 ± 0.00086
same,relative viability,RD; 0.00017 µM,1.09 ± 0.017
same,relative viability,RD; 0.00051 µM,1.1 ± 0.03
same,relative viability,RD; 0.00152 µM,1.11 ± 0.069
same,relative viability,RD; 0.00457 µM,1.1 ± 0.014
same,relative viability,RD; 0.01372 µM,1.11 ± 0.048
same,relative viability,RD; 0.04115 µM,1.13 ± 0.066
same,relative viability,RD; 0.1235 µM,1.07 ± 0.054
same,relative viability,RD; 0.3704 µM,0.991 ± 0.04
same,relative viability,RD; 1.111 µM,0.96 ± 0.023
same,relative viability,RD; 3.333 µM,0.535 ± 0.011
same,relative viability,RD; 10 µM,0.457 ± 0.015
same,relative viability,SK-LMS-1; 0.00017 µM,1.06 ± 0.037
same,relative viability,SK-LMS-1; 0.00051 µM,1.03 ± 0.015
same,relative viability,SK-LMS-1; 0.00152 µM,1.05 ± 0.019
same,relative viability,SK-LMS-1; 0.00457 µM,1.05 ± 0.02
same,relative viability,SK-LMS-1; 0.01372 µM,1.03 ± 0.046
same,relative viability,SK-LMS-1; 0.04115 µM,1.029 ± 0.008
same,relative viability,SK-LMS-1; 0.1235 µM,0.897 ± 0.042
same,relative viability,SK-LMS-1; 0.3704 µM,0.819 ± 0.016
same,relative viability,SK-LMS-1; 1.111 µM,0.769 ± 0.045
same,relative viability,SK-LMS-1; 3.333 µM,0.618 ± 0.027
same,relative viability,SK-LMS-1; 10 µM,0.403 ± 0.024
same,relative viability,SW1353; 0.00017 µM,0.996 ± 0.017
same,relative viability,SW1353; 0.00051 µM,0.997 ± 0.017
same,relative viability,SW1353; 0.00152 µM,0.997 ± 0.016
same,relative viability,SW1353; 0.00457 µM,1.01 ± 0.007
same,relative viability,SW1353; 0.01372 µM,0.9999 ± 0.0047
same,relative viability,SW1353; 0.04115 µM,0.965 ± 0.025
same,relative viability,SW1353; 0.1235 µM,0.8997 ± 0.007
same,relative viability,SW1353; 0.3704 µM,0.773 ± 0.047
same,relative viability,SW1353; 1.111 µM,0.6 ± 0.059
same,relative viability,SW1353; 3.333 µM,0.296 ± 0.011
same,relative viability,SW1353; 10 µM,0.256 ± 0.026
same,relative viability,HS729; 0.00017 µM,0.913 ± 0.037
same,relative viability,HS729; 0.00051 µM,0.952 ± 0.011
same,relative viability,HS729; 0.00152 µM,0.938 ± 0.066
same,relative viability,HS729; 0.00457 µM,0.961 ± 0.039
same,relative viability,HS729; 0.01372 µM,0.982 ± 0.043
same,relative viability,HS729; 0.04115 µM,0.914 ± 0.042
same,relative viability,HS729; 0.1235 µM,0.845 ± 0.051
same,relative viability,HS729; 0.3704 µM,0.724 ± 0.037
same,relative viability,HS729; 1.111 µM,0.726 ± 0.0082
same,relative viability,HS729; 3.333 µM,0.519 ± 0.013
same,relative viability,HS729; 10 µM,0.586 ± 0.015
same,relative viability,A204; 0.00017 µM,1.07 ± 0.012
same,relative viability,A204; 0.00051 µM,1.08 ± 0.044
same,relative viability,A204; 0.00152 µM,1.07 ± 0.033
same,relative viability,A204; 0.00457 µM,1.07 ± 0.051
same,relative viability,A204; 0.01372 µM,1.07 ± 0.048
same,relative viability,A204; 0.04115 µM,1.02 ± 0.021
same,relative viability,A204; 0.1235 µM,0.954 ± 0.018
same,relative viability,A204; 0.3704 µM,0.763 ± 0.022
same,relative viability,A204; 1.111 µM,0.494 ± 0.048
same,relative viability,A204; 3.333 µM,0.236 ± 0.027
same,relative viability,A204; 10 µM,0.07 ± 0.0078
same,relative viability,SK-ES-1; 0.00017 µM,1.01 ± 0.042
same,relative viability,SK-ES-1; 0.00051 µM,1.04 ± 0.0074
same,relative viability,SK-ES-1; 0.00152 µM,1.03 ± 0.029
same,relative viability,SK-ES-1; 0.00457 µM,1.049 ± 0.0092
same,relative viability,SK-ES-1; 0.01372 µM,1.01 ± 0.046
same,relative viability,SK-ES-1; 0.04115 µM,0.986 ± 0.035
same,relative viability,SK-ES-1; 0.1235 µM,0.813 ± 0.058
same,relative viability,SK-ES-1; 0.3704 µM,0.602 ± 0.022
same,relative viability,SK-ES-1; 1.111 µM,0.831
same,relative viability,SK-ES-1; 3.333 µM,0.292 ± 0.014
same,relative viability,SK-ES-1; 10 µM,0.0769 ± 0.00062
same,relative viability,SW872; 0.00017 µM,1.09 ± 0.068
same,relative viability,SW872; 0.00051 µM,1.07 ± 0.042
same,relative viability,SW872; 0.00152 µM,1.08 ± 0.066
same,relative viability,SW872; 0.00457 µM,1.09 ± 0.06
same,relative viability,SW872; 0.01372 µM,1.08 ± 0.063
same,relative viability,SW872; 0.04115 µM,1.05 ± 0.044
same,relative viability,SW872; 0.1235 µM,0.977 ± 0.013
same,relative viability,SW872; 0.3704 µM,0.795 ± 0.031
same,relative viability,SW872; 1.111 µM,0.617 ± 0.025
same,relative viability,SW872; 3.333 µM,0.267 ± 0.038
same,relative viability,SW872; 10 µM,0.202 ± 0.0044
same,relative viability,G401; 0.00017 µM,0.9887 ± 0.008
same,relative viability,G401; 0.00051 µM,1.01 ± 0.031
same,relative viability,G401; 0.00152 µM,1.03 ± 0.033
same,relative viability,G401; 0.00457 µM,1.07 ± 0.049
same,relative viability,G401; 0.01372 µM,1.004 ± 0.0072
same,relative viability,G401; 0.04115 µM,1.05 ± 0.051
same,relative viability,G401; 0.1235 µM,0.986 ± 0.031
same,relative viability,G401; 0.3704 µM,0.962 ± 0.034
same,relative viability,G401; 1.111 µM,0.75 ± 0.054
same,relative viability,G401; 3.333 µM,0.212 ± 0.014
same,relative viability,G401; 10 µM,0.0346 ± 0.0027
